Columns and labels:
[1] = tested on: GM-6114; test: MTT assay, cytotoxicity on normal fibroblasts; format: cell-based; conditions: human, 48 h, 10 µM
Protocol: Pyrazole acylhydrazones 10–13 and amides 14–22 were tested by MTT assay to evaluate their antiproliferative and cytotoxicity properties against a panel of eight tumor cell lines and normal fibroblasts.
The following cell lines were used for MTT assays: SKOV-3 (ovarian adenocarcinoma, ATCC, Manassas, VA, USA); MCF-7 (breast adenocarcinoma, Biologic Bank and Cell Factory, IRCCS Policlinico San Martino, Genoa, Italy); Hep-G2 (hepatocellular carcinoma, ATCC, Manassas, VA, USA); SK-MEL28 (skin melanoma, Biologic Bank and Cell Factory, IRCCS Policlinico San Martino, Genoa, Italy), GM-6114 (embryonic human fibroblast, ATCC, Manassas, VA, USA); MDA-MB231 (breast adenocarcinoma, Biologic Bank and Cell Factory, IRCCS Policlinico San Martino, Genoa, Italy); HeLa (cervical adenocarcinoma, Biologic Bank and Cell Factory, IRCCS Policlinico San Martino, Genoa, Italy); SK-BR3 (breast andenocarcinoma, Biologic Bank and Cell Factory, IRCCS Policlinico San Martino, Genoa, Italy); A549 (lung carcinoma, Biologic Bank and Cell Factory, IRCCS Policlinico San Martino, Genoa, Italy); HUVEC (Human Umbilical Vein Endothelial Cells, ATCC, Manassas, VA, USA). All cell lines were grown in their medium with 10% FBS, 2 mM Glutamine, and 1% penstrep and incubated at 37 °C in 5% CO2 in a humidified environment. The cell lines were plated in 96-well plates at an adequate number to reach 80–90% confluence at the end of the assay. 16 h after cell plating, a 10 mM DMSO stock solution of the compounds was diluted in growth medium and added at a final working concentration of 10 μM. After 48h of incubation, a 2 mg/mL PBS solution of MTT (3-(4,5-dimethyl-2-thiazolyl)-2,5-diphenyl-2H-tetrazolium bromide) was added (30 μL/well). After 4h, the supernatant was removed, and the Formazan precipitates were dissolved in DMSO (100 μL/well). The 96-well plates were incubated for 20 min, and absorbance was measured at 570 nm using a plate reader. The results are expressed as a percentage ratio over control samples (100%) in which the cells were incubated with the same amount of DMSO but without compounds. Each value is the mean of three independent experiments run in six replicates.

[2] = DPPH radical-scavenging activity; format: physicochemical; parameters: AA (%), percentage of antioxidant activity: concentration or dose not given beside the values; conditions: mean ± SD, n = 2
Protocol: The antioxidant activity of the representative compounds of the two series (namely, acylhydrazones 10b, 11a, 11d, 12d, 13d, and amides 14, 22) was measured in vitro using the 2,2-diphenyl-1-picrylhydrazyl (DPPH) assay. The results were calculated as Trolox equivalent and expressed as a percentage of antioxidant activity (AA) (Table 3). […] Derivatives 10b and 12d were endowed with the highest antioxidant activity, thus highlighting the relevance of both pyrazole N1 and acylhydrazone substituents on compounds’ radical scavenging properties.
Compounds 10b, 11a, 11d, 12d, 13d, 14, and 22 (ca. 3 mg) were dissolved in DMSO (1 mL), and then 100 µL of this solution was mixed with 3.9 mL of DPPH methanol solution (65 µM). Absorbance was measured at 517 nm after reacting for 30 min in the dark. The linear calibration curve was obtained using Trolox standards (ranging between 20 and 200 mg/L, R^2 = 0.9955). The result was calculated as Trolox equivalent in mg/L, and the percentage of antioxidant activity (AA%) was calculated from the ratio of decreasing absorbance of sample solution (A0 − As) to absorbance of blank DPPH solution (A0), as expressed in Equation (1). (1) AA%=A0−As/A0×100
All analyses were carried out in duplicate (n = 2), and values are given as means ± standard deviation (SD).

[3] = tested on: CCRF-CEM; test: NCI screening, Leukemia; format: cell-based; conditions: 10 µM
Protocol: (§1) In addition, 11a and 17 (representative compounds of the acylhydrazone and amide series) were selected by the National Cancer Institute (NCI, Germantown, MD, USA) and tested at a fixed concentration of 10 µM against a panel of fifty-nine different cancer cell lines, including highly metastatic tumors (Table 2).

[4] = tested on: MOLT-4; test: NCI screening, Leukemia; format: cell-based; conditions: MOLT-4, Leukemia; 10 µM
Protocol: as §1

[5] = tested on: RPMI-8226; test: NCI screening, Leukemia; format: cell-based; conditions: RPMI-8226, Leukemia; 10 µM
Protocol: as §1

[6] = tested on: A549/ATCC; test: NCI screening, Non-Small Cell Lung Cancer; format: cell-based; conditions: 10 µM
Protocol: as §1

[7] = tested on: EKVX; test: NCI screening, Non-Small Cell Lung Cancer; format: cell-based; conditions: 10 µM
Protocol: as §1

[8] = tested on: HOP-62; test: NCI screening, Non-Small Cell Lung Cancer; format: cell-based; conditions: HOP-62, Non-Small Cell Lung Cancer; 10 µM
Protocol: as §1

[9] = tested on: HOP-92; test: NCI screening, Non-Small Cell Lung Cancer; format: cell-based; conditions: HOP-92, Non-Small Cell Lung Cancer; 10 µM
Protocol: as §1

[10] = tested on: NCI-H226; test: NCI screening, Non-Small Cell Lung Cancer; format: cell-based; conditions: 10 µM
Protocol: as §1

[11] = tested on: NCI-H23; test: NCI screening, Non-Small Cell Lung Cancer; format: cell-based; conditions: 10 µM
Protocol: as §1

[12] = tested on: NCI-H322M; test: NCI screening, Non-Small Cell Lung Cancer; format: cell-based; conditions: 10 µM
Protocol: as §1

[13] = tested on: HCC-2998; test: NCI screening, Colon Cancer; format: cell-based; conditions: HCC-2998, Colon Cancer; 10 µM
Protocol: as §1

[14] = tested on: KM12; test: NCI screening, Colon Cancer; format: cell-based; conditions: 10 µM
Protocol: as §1

[15] = tested on: DU-145; test: NCI screening, Prostate Cancer; format: cell-based; conditions: DU-145, Prostate Cancer; 10 µM
Protocol: as §1

[16] = tested on: PC-3; test: NCI screening, Prostate Cancer; format: cell-based; conditions: PC-3, Prostate Cancer; 10 µM
Protocol: as §1

[17] = tested on: HL-60(TB); test: NCI screening, Leukemia; format: cell-based; conditions: 10 µM
Protocol: as §1

[18] = tested on: K-562; test: NCI screening, Leukemia; format: cell-based; conditions: K-562, Leukemia; 10 µM
Protocol: as §1

[19] = tested on: SR; test: NCI screening, Leukemia; format: cell-based; conditions: 10 µM
Protocol: as §1

[20] = tested on: NCI-H460; test: NCI screening, Non-Small Cell Lung Cancer; format: cell-based; conditions: 10 µM
Protocol: as §1

[21] = tested on: NCI-H522; test: NCI screening, Non-Small Cell Lung Cancer; format: cell-based; conditions: 10 µM
Protocol: as §1

[22] = tested on: HCT-116; test: NCI screening, Colon Cancer; format: cell-based; conditions: HCT-116, Colon Cancer; 10 µM
Protocol: as §1

[23] = tested on: HCT-15; test: NCI screening, Colon Cancer; format: cell-based; conditions: HCT-15, Colon Cancer; 10 µM
Protocol: as §1

[24] = tested on: HT29; test: NCI screening, Colon Cancer; format: cell-based; conditions: 10 µM
Protocol: as §1

[25] = tested on: SW-620; test: NCI screening, Colon Cancer; format: cell-based; conditions: SW-620, Colon Cancer; 10 µM
Protocol: as §1

[26] = tested on: HS 578T; test: NCI screening, Breast Cancer; format: cell-based; conditions: 10 µM
Protocol: as §1

[27] = tested on: MCF7; test: NCI screening, Breast Cancer; format: cell-based; conditions: 10 µM
Protocol: as §1

[28] = tested on: MDA-MB-468; test: NCI screening, Breast Cancer; format: cell-based; conditions: MDA-MB-468, Breast Cancer; 10 µM; negative values indicate lethality
Protocol: as §1

[29] = tested on: LOX IMVI; test: NCI screening, Melanoma; format: cell-based; conditions: 10 µM
Protocol: as §1

[30] = tested on: M14; test: NCI screening, Melanoma; format: cell-based; conditions: 10 µM
Protocol: as §1

[31] = tested on: MDA-MB-435; test: NCI screening, Melanoma; format: cell-based; conditions: MDA-MB-435, Melanoma; 10 µM; negative values indicate lethality
Protocol: as §1

**Q.** For `COc1ccc(/C=N/NC(=O)c2c(N)nn(C)c2Nc2ccccc2)cc1` [11a, (E)-3-amino-N′-(4-methoxybenzylidene)-1-methyl-5-(phenylamino)-1H-pyrazole-4-carbohydrazide], which “Mean Growth Percentage” value [1] is on record?
**A.** 69.81%

**Q.** And the “AA (%), percentage of antioxidant activity” value [2]?
**A.** 25.56 ± 2.44%

**Q.** What about the “DPPH (%)” value [2] of the same compound?
**A.** 74.44 ± 2.44%

**Q.** And the “Growth Percentage (%)” value [3]?
**A.** 38.45%

**Q.** And the “Growth Percentage (%)” value [4]?
**A.** 49.41%

**Q.** And the “Growth Percentage (%)” value [5]?
**A.** 61.65%

**Q.** And the “Growth Percentage (%)” value [6]?
**A.** 57.09%

**Q.** What about the “Growth Percentage (%)” value [7] of the same compound?
**A.** 69.71%

**Q.** And the “Growth Percentage (%)” value [8]?
**A.** 38.79%

**Q.** What about the “Growth Percentage (%)” value [9] of the same compound?
**A.** 46.79%

**Q.** And the “Growth Percentage (%)” value [10]?
**A.** 51.61%

**Q.** And the “Growth Percentage (%)” value [11]?
**A.** 66.86%

**Q.** And the “Growth Percentage (%)” value [12]?
**A.** 89.96%

**Q.** What about the “Growth Percentage (%)” value [13] of the same compound?
**A.** 59.18%

**Q.** What about the “Growth Percentage (%)” value [14] of the same compound?
**A.** 27.82%

**Q.** What about the “Growth Percentage (%)” value [15] of the same compound?
**A.** 76.34%

**Q.** And the “Growth Percentage (%)” value [16]?
**A.** 55.90%

**Q.** And the melting point?
**A.** 208 to 210 °C

**Q.** What does the source list for `CCOC(=O)c1c(NC(=O)C2CC2)nn(C)c1Nc1ccccc1` [compound 17, Ethyl 3-(cyclopropanecarboxamido)-1-methyl-5-(phenylamino)-1H-pyrazole-4-carboxylate]?
**A.** Mean Growth Percentage [1]: 65.92%; Growth Percentage (%) [3]: 97.75%; Growth Percentage (%) [17]: 96.44%; Growth Percentage (%) [18]: 96.41%; Growth Percentage (%) [4]: 101.92%; Growth Percentage (%) [5]: 99.62%; Growth Percentage (%) [19]: 94.23%; Growth Percentage (%) [6]: 101.59%; Growth Percentage (%) [7]: 96.82%; Growth Percentage (%) [8]: 110.36%; Growth Percentage (%) [9]: 81.47%; Growth Percentage (%) [10]: 98.86%; Growth Percentage (%) [11]: 98.44%; Growth Percentage (%) [12]: 94.41%; Growth Percentage (%) [20]: 101.02%; Growth Percentage (%) [21]: 97.23%; Growth Percentage (%) [13]: 114.15%; Growth Percentage (%) [22]: 104.12%; Growth Percentage (%) [23]: 96.95%; Growth Percentage (%) [24]: 99.47%; Growth Percentage (%) [14]: 105.43%; Growth Percentage (%) [25]: 94.82%; Growth Percentage (%) [15]: 104.67%; Growth Percentage (%) [16]: 95.84%; Growth Percentage (%) [26]: 96.86%; Growth Percentage (%) [27]: 92.37%; Growth Percentage (%) [28]: 102.11%; Growth Percentage (%) [29]: 102.01%; Growth Percentage (%) [30]: 102.31%; Growth Percentage (%) [31]: 101.76%; melting point: 144 to 145 °C

From paper PMC11083148, “Structure–Activity Relationship Studies on Highly Functionalized Pyrazole Hydrazones and Amides as Antiproliferative and Antioxidant Agents” (International Journal of Molecular Sciences, 2024)
